# Test system: HCC44
# Assay: Cell viability dose-response, HCC44
# Type: cell-based, human
# Details: Homo sapiens, HCC44, 12-point dose-response starting at 50 micromolar, 3-fold increments, in duplicate; read-out: toxicity data, HCC44
# Description: (§1) FIG. 6A. […] Cell viability is plotted vs. compound concentration. Compound was added to cells plated at 15% confluence in 96-well plates in RPMI-1640 media supplemented with 5% Fetal Bovine Serum and 2 mM L-Glutamine. After 4 days of incubation, ATP levels were measured using Cell Titer Glo (Promega). Data are presented as the average of 2 replicates ±SEM.
# (§2) Selectivity may be measured by the half maximal inhibitory concentration (IC50), which, as used herein, is a measure of the effectiveness of a compound in killing cells. This quantitative measure indicates how much of a particular compound is needed to kill a particular cell population by half (e.g., as indicated by the amount of ATP). […] The IC50 can be determined by constructing a dose-response curve. The lower the IC50, the higher the potency, and the greater the difference between IC50 values for different cell lines (e.g., sensitive lines vs. insensitive lines, and sensitive lines vs. normal lines) the greater the selectivity. […]
# (§3) With this information, we synthesized and tested a series of small molecules derived in conception from the oxalamide and chromone scaffold including N-acyl ureas, as shown in Tables 6-8. Each compound was tested in a 12-point dose-response study starting at 50 micromolar and decreasing in 3-fold increments to sub-nanomolar concentrations, in duplicate. Additionally, one or more additional cell line was tested in the same way.
row,SMILES,IC50 [µM]
1,COc1ccc(CCNC(=O)N(C)C(=O)c2ccc(C(=O)c3ccccc3)cc2)cc1 [SW208566-1-A],7.76
2,COc1ccc(CCN(C)C(=O)N(C)C(=O)c2ccc(C(=O)c3ccccc3)cc2)cc1 [SW208567-1-A],8
3,COc1cccc(C(=O)c2ccc(C(=O)NC(=O)NCCc3ccc(O)cc3)cc2)c1 [SW208579-1-A],0.46
4,COc1ccccc1C(=O)c1ccc(C(=O)NC(=O)NCCc2ccc(O)cc2)cc1 [SW208580-1-A],8.08
5,Cc1ccccc1C(=O)c1ccc(C(=O)NC(=O)NCCc2ccc(O)cc2)cc1 [SW208581-1-A],0.87
6,Cc1cccc(C(=O)c2ccc(C(=O)NC(=O)NCCc3ccc(O)cc3)cc2)c1 [SW208582-1-A],1.53
7,COc1ccc(CC(=O)Nc2ccc(C(=O)c3ccccc3)cc2)cc1 [SW208583-1-A],4.3

# Same assay, conditions: Homo sapiens, HCC44, Table 8; 12-point dose-response starting at 50 micromolar
row,SMILES,AC50 [µM]
1,O=c1c(Oc2ccccc2F)coc2cc(OCc3cnn(-c4cccc(F)c4)c3)ccc12 [SW208467],49.5
2,O=c1c(Oc2ccccc2F)coc2cc(OCc3cnn(-c4ccc(F)cc4)c3)ccc12 [SW208468],49.5
3,O=c1c(Oc2ccccc2F)coc2cc(OCc3cnn(-c4ccc(Cl)cc4)c3)ccc12 [SW208469],49.5
4,O=c1c(Oc2cccc(F)c2)coc2cc(OCc3cnn(-c4ccccc4)c3)ccc12 [SW208592-1],0.08
5,O=c1c(-c2ccc(Cl)cc2)coc2cc(OCc3cnn(-c4ccccc4)c3)ccc12 [SW208738],49.5
6,O=c1c(-c2cccc(O)c2)coc2cc(OCc3cnn(-c4ccccc4)c3)ccc12 [SW208740],49.5
7,O=c1c(-c2ccc(O)cc2)coc2cc(OCc3cnn(-c4ccccc4)c3)ccc12 [SW208757-1],49.5
8,Cc1ccc(/C=C/c2coc3cc(OCc4cnn(-c5ccccc5)c4)ccc3c2=O)cc1 [SW208758-1],49.5
9,COc1ccc(-c2coc3cc(OCc4cnn(-c5ccccc5)c4)ccc3c2=O)cc1 [SW208759-1],49.5
10,O=c1c(-c2ccc(F)cc2F)coc2cc(OCc3cnn(-c4ccccc4)c3)ccc12 [SW208760-1],49.5
11,O=c1c(-c2ccc3ccccc3c2)coc2cc(OCc3cnn(-c4ccccc4)c3)ccc12 [SW208761-1],49.5
12,O=c1c(-c2ccc(F)c(F)c2)coc2cc(OCc3cnn(-c4ccccc4)c3)ccc12 [SW208762-1],49.5
13,O=c1c(-c2cc(C(F)(F)F)cc(C(F)(F)F)c2)coc2cc(OCc3cnn(-c4ccccc4)c3)ccc12 [SW208763-1],1.36
14,O=c1c(C2=CCCCC2)coc2cc(OCc3cnn(-c4ccccc4)c3)ccc12 [SW208764-1],49.5
15,CCOc1ccc(-c2coc3cc(OCc4cnn(-c5ccccc5)c4)ccc3c2=O)cc1 [SW208765-1],49.5

# Same assay, conditions: Homo sapiens, HCC44, Tables 3 and 4; read-out: IC50 (uM) vs indicated non-small cell lung cancer cell line HCC44
row,SMILES,IC50 [µM]
1,O=C(Nc1nc2ccccc2s1)c1ccc(C(=O)c2ccccc2)cc1 [SW208652-1],0.025
2,O=C(Nc1nc2ccccc2[nH]1)c1ccc(C(=O)c2ccccc2)cc1 [SW208653-1],3.63

# Test system: H2122
# Assay: Cell viability dose-response, H2122
# Type: cell-based, human
# Details: Homo sapiens, NCI-H2122, 12-point dose-response starting at 50 micromolar, 3-fold increments, in duplicate; read-out: toxicity data, H2122
# Outline: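 Viability read as total ATP (Cell Titer Glo) following 4 days' compound exposure, with IC50 derived from dose-response curves. Duplicate 12-point series, top concentration 50 micromolar with 3-fold steps, on cells seeded at 15% confluence in RPMI-1640, 5% FBS, 2 mM L-glutamine.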
row,SMILES,IC50 [µM]
1,COc1ccc(CCNC(=O)N(C)C(=O)c2ccc(C(=O)c3ccccc3)cc2)cc1 [SW208566-1-A],6.15
2,COc1ccc(CCN(C)C(=O)N(C)C(=O)c2ccc(C(=O)c3ccccc3)cc2)cc1 [SW208567-1-A],15.7
3,COc1cccc(C(=O)c2ccc(C(=O)NC(=O)NCCc3ccc(O)cc3)cc2)c1 [SW208579-1-A],0.82
4,COc1ccccc1C(=O)c1ccc(C(=O)NC(=O)NCCc2ccc(O)cc2)cc1 [SW208580-1-A],9.46
5,Cc1ccccc1C(=O)c1ccc(C(=O)NC(=O)NCCc2ccc(O)cc2)cc1 [SW208581-1-A],1.52
6,Cc1cccc(C(=O)c2ccc(C(=O)NC(=O)NCCc3ccc(O)cc3)cc2)c1 [SW208582-1-A],2.73
7,COc1ccc(CC(=O)Nc2ccc(C(=O)c3ccccc3)cc2)cc1 [SW208583-1-A],3.4

# Same assay, conditions: Homo sapiens, NCI-H2122, Table 8; 12-point dose-response starting at 50 micromolar
row,SMILES,AC50 [µM]
1,O=c1c(Oc2ccccc2F)coc2cc(OCc3cnn(-c4cccc(F)c4)c3)ccc12 [SW208467],≥ 49.5
2,O=c1c(Oc2ccccc2F)coc2cc(OCc3cnn(-c4ccc(F)cc4)c3)ccc12 [SW208468],≥ 49.5
3,O=c1c(Oc2ccccc2F)coc2cc(OCc3cnn(-c4ccc(Cl)cc4)c3)ccc12 [SW208469],≥ 49.5
4,O=c1c(Oc2cccc(F)c2)coc2cc(OCc3cnn(-c4ccccc4)c3)ccc12 [SW208592-1],0.15
5,O=c1c(-c2ccc(Cl)cc2)coc2cc(OCc3cnn(-c4ccccc4)c3)ccc12 [SW208738],≥ 49.5
6,O=c1c(-c2cccc(O)c2)coc2cc(OCc3cnn(-c4ccccc4)c3)ccc12 [SW208740],21
7,O=c1c(-c2ccc(O)cc2)coc2cc(OCc3cnn(-c4ccccc4)c3)ccc12 [SW208757-1],≥ 49.5
8,Cc1ccc(/C=C/c2coc3cc(OCc4cnn(-c5ccccc5)c4)ccc3c2=O)cc1 [SW208758-1],≥ 49.5
9,COc1ccc(-c2coc3cc(OCc4cnn(-c5ccccc5)c4)ccc3c2=O)cc1 [SW208759-1],≥ 49.5
10,O=c1c(-c2ccc(F)cc2F)coc2cc(OCc3cnn(-c4ccccc4)c3)ccc12 [SW208760-1],0.11
11,O=c1c(-c2ccc3ccccc3c2)coc2cc(OCc3cnn(-c4ccccc4)c3)ccc12 [SW208761-1],≥ 49.5
12,O=c1c(-c2ccc(F)c(F)c2)coc2cc(OCc3cnn(-c4ccccc4)c3)ccc12 [SW208762-1],0.18
13,O=c1c(-c2cc(C(F)(F)F)cc(C(F)(F)F)c2)coc2cc(OCc3cnn(-c4ccccc4)c3)ccc12 [SW208763-1],0.08
14,O=c1c(C2=CCCCC2)coc2cc(OCc3cnn(-c4ccccc4)c3)ccc12 [SW208764-1],≥ 49.5
15,CCOc1ccc(-c2coc3cc(OCc4cnn(-c5ccccc5)c4)ccc3c2=O)cc1 [SW208765-1],≥ 49.5

# Same assay, conditions: Homo sapiens, NCI-H2122, Table 9, competitor; read-out: IC50 to H2122 cells
row,SMILES,IC50 [µM]
1,COc1ccccc1C(=O)c1ccc(C(=O)NC(=O)NCCc2ccc(O)cc2)cc1 [SW208580-1-A],0.8
2,Cc1cccc(C(=O)c2ccc(C(=O)NC(=O)NCCc3ccc(O)cc3)cc2)c1 [SW208582-1-A],0.8
3,O=C(Nc1nc2ccccc2s1)c1ccc(C(=O)c2ccccc2)cc1 [SW208652-1],0.00644
4,O=C(Nc1nc2ccccc2[nH]1)c1ccc(C(=O)c2ccccc2)cc1 [SW208653-1],0.0383

# Same assay, conditions: Homo sapiens, NCI-H2122, Tables 3 and 4; read-out: IC50 (uM) vs indicated non-small cell lung cancer cell line H2122
row,SMILES,IC50 [µM]
1,O=C(Nc1nc2ccccc2s1)c1ccc(C(=O)c2ccccc2)cc1 [SW208652-1],0.009
2,O=C(Nc1nc2ccccc2[nH]1)c1ccc(C(=O)c2ccccc2)cc1 [SW208653-1],0.042

# Test system: H2009
# Assay: Cell viability dose-response, H2009
# Type: cell-based, human
# Details: Homo sapiens, NCI-H2009, Table 8; 12-point dose-response starting at 50 micromolar
# Description: as §1, §2, §3
row,SMILES,AC50 [µM]
1,O=c1c(Oc2ccccc2F)coc2cc(OCc3cnn(-c4cccc(F)c4)c3)ccc12 [SW208467],12.6
2,O=c1c(Oc2ccccc2F)coc2cc(OCc3cnn(-c4ccc(F)cc4)c3)ccc12 [SW208468],22.3
3,O=c1c(Oc2ccccc2F)coc2cc(OCc3cnn(-c4ccc(Cl)cc4)c3)ccc12 [SW208469],16.5
4,O=c1c(Oc2cccc(F)c2)coc2cc(OCc3cnn(-c4ccccc4)c3)ccc12 [SW208592-1],16.5
5,O=c1c(-c2ccc(Cl)cc2)coc2cc(OCc3cnn(-c4ccccc4)c3)ccc12 [SW208738],49.5
6,O=c1c(-c2cccc(O)c2)coc2cc(OCc3cnn(-c4ccccc4)c3)ccc12 [SW208740],39
7,O=c1c(-c2ccc(O)cc2)coc2cc(OCc3cnn(-c4ccccc4)c3)ccc12 [SW208757-1],5.63
8,Cc1ccc(/C=C/c2coc3cc(OCc4cnn(-c5ccccc5)c4)ccc3c2=O)cc1 [SW208758-1],16.5
9,COc1ccc(-c2coc3cc(OCc4cnn(-c5ccccc5)c4)ccc3c2=O)cc1 [SW208759-1],49.5
10,O=c1c(-c2ccc(F)cc2F)coc2cc(OCc3cnn(-c4ccccc4)c3)ccc12 [SW208760-1],20.7
11,O=c1c(-c2ccc3ccccc3c2)coc2cc(OCc3cnn(-c4ccccc4)c3)ccc12 [SW208761-1],32.4
12,O=c1c(-c2ccc(F)c(F)c2)coc2cc(OCc3cnn(-c4ccccc4)c3)ccc12 [SW208762-1],43.2
13,O=c1c(-c2cc(C(F)(F)F)cc(C(F)(F)F)c2)coc2cc(OCc3cnn(-c4ccccc4)c3)ccc12 [SW208763-1],3.26
14,O=c1c(C2=CCCCC2)coc2cc(OCc3cnn(-c4ccccc4)c3)ccc12 [SW208764-1],49.5
15,CCOc1ccc(-c2coc3cc(OCc4cnn(-c5ccccc5)c4)ccc3c2=O)cc1 [SW208765-1],16.5

# Same assay, conditions: Homo sapiens, NCI-H2009; 12-point dose-response starting at 50 micromolar, 3-fold increments, in duplicate; read-out: toxicity data, H2009
row,SMILES,IC50 [µM]
1,COc1ccc(CCNC(=O)N(C)C(=O)c2ccc(C(=O)c3ccccc3)cc2)cc1 [SW208566-1-A],10.3
2,COc1ccc(CCN(C)C(=O)N(C)C(=O)c2ccc(C(=O)c3ccccc3)cc2)cc1 [SW208567-1-A],16.5
3,COc1cccc(C(=O)c2ccc(C(=O)NC(=O)NCCc3ccc(O)cc3)cc2)c1 [SW208579-1-A],0.42
4,COc1ccccc1C(=O)c1ccc(C(=O)NC(=O)NCCc2ccc(O)cc2)cc1 [SW208580-1-A],2.14
5,Cc1ccccc1C(=O)c1ccc(C(=O)NC(=O)NCCc2ccc(O)cc2)cc1 [SW208581-1-A],0.51
6,Cc1cccc(C(=O)c2ccc(C(=O)NC(=O)NCCc3ccc(O)cc3)cc2)c1 [SW208582-1-A],0.5
7,COc1ccc(CC(=O)Nc2ccc(C(=O)c3ccccc3)cc2)cc1 [SW208583-1-A],≥ 49.5

# Same assay, conditions: Homo sapiens, NCI-H2009; Tables 3 and 4; read-out: IC50 (uM) vs indicated non-small cell lung cancer cell line H2009
row,SMILES,IC50 [µM]
1,O=C(Nc1nc2ccccc2s1)c1ccc(C(=O)c2ccccc2)cc1 [SW208652-1],2.42
2,O=C(Nc1nc2ccccc2[nH]1)c1ccc(C(=O)c2ccccc2)cc1 [SW208653-1],1.8
